Laboratory results from patent publication US20090214498A1, “ANTIMICROBIAL PEPTIDES AND BACTERIAL STRAINS THAT PRODUCE THEM” (TEAGASC- NATIONAL DIARY PRODUCTS RESEARCH CENTRE, priority 2005, published 2009).
Values after ≈ are worked out from the molar mass of the structure shown. Values joined by “and” are separate entries in the source; they are usually repeats but may differ in a detail not shown here. Equal entries are not always repeated. Residues, ends and D or L forms follow the SMILES beside them.

Key:
E. coli DPC6053 [1] = test: 96-well plate assay (OD600), MIC; type: cell-based, Escherichia coli; details: for minimum inhibitory concentration (MIC): E. coli DPC6053, 6 h at 37° C., OD600
Description: (§1) Preliminary characterisation of the antibacterial activity of peptides and fractions synthesised involved measurement of growth inhibition in a 96-well plate assay (1, 10) and utilisation of an agar diffusion method (16,39). […] A control without bacteria (sterility control) was also included. The plates were incubated for 6 h at 37° C. and culture growth monitored hourly. Minimum inhibitory concentrations (MIC's) were taken as the lowest concentration without visible growth, measured by recording the OD600, in a micro-titre plate reader. A well diffusion assay (16, 40) was used to detect antibacterial activity of purified and chemically synthesised peptides. These assays were performed in either Brain Heart Infusion (BHI), Luria Bertani (LB) or Nutrient agar (NA) seeded with 1 ml of an overnight culture of the indicator strains E. coli DPC6053, L. innocua DPC3306, E. sakazakii 5920 (ATCC12868) or E. sakazakii 8272 (NCTC8155) respectively. Wells, 4.6 mm in diameter, were cut into these agar plates, and 30 μl (0.162 mg/ml) of the peptide fraction placed in each well. Plates were stored at 4° C. for 4 h to permit radial diffusion of the peptide, incubated at 30° C. anaerobically or 37° C. aerobically for 24 h, and examined for zones of inhibition. The sensitivity of a strain to the peptides was scored according to the diameter of the zone of inhibition surrounding the well. The experiments were performed in triplicate and mean zone size calculated.

[2] = system: Streptococcus mutans DPC4069; test: agar well diffusion assay, S. mutans DPC4069; type: cell-based; set-up: key: +++: Zone of inhibition >2.0 cm in diameter produced.; ++: Zone of inhibition >1.5 cm in diameter produced.; +: Zone of inhibition >1.0 cm in diameter produced.; −: No zone detected; details: pure synthesised peptide
[3] = system: E. sakazakii 5920 (ATCC12868); test: agar well diffusion assay, E. sakazakii 5920; type: cell-based, Enterobacter sakazakii; set-up: key to zone of inhibition (inhibitory spectrum): +++: Zone of inhibition >2.0 cm in diameter produced.; ++: Zone of inhibition >1.5 cm in diameter produced.; +: Zone of inhibition >1.0 cm in diameter produced.; −: No zone detected; details: for zone of inhibition (inhibitory spectrum): Enterobacter sakazakii ATCC12868 DPC6090, pure synthesised peptide
Description: as §1

E. coli DPC6053 [4] = test: susceptibility to proteinase K, agar well diffusion assay; type: cell-based, Escherichia coli; details: proteinase K 2050 U/ml, 1:1 volume ratio, 4° C., 6 h
Description: Plates were incubated at 37° C. for 24 h. The positive controls used were the peptides isracidin (Peptide Protein Research Ltd.) and Cecropin P1 (Sigma TM).

[5] = system: Lactobacillus bulgaricus ATCC11842 DPC5383; test: agar well diffusion assay, L. bulgaricus DPC5383; type: cell-based; set-up: key: +++: Zone of inhibition >2.0 cm in diameter produced.; ++: Zone of inhibition >1.5 cm in diameter produced.; +: Zone of inhibition >1.0 cm in diameter produced.; −: No zone detected; details: pure synthesised peptide
L. innocua DPC3306 = test: agar well diffusion assay, L. innocua DPC3306; type: cell-based; details: Listeria innocua DPC3306; for zone of inhibition (inhibitory spectrum): pure synthesised peptide
Description: as §1

E. coli DPC6053 [6] = test: agar well diffusion assay, E. coli DPC6053; type: cell-based, Escherichia coli JM109; set-up: key to zone of inhibition (inhibitory spectrum): +++: Zone of inhibition >2.0 cm in diameter produced.; ++: Zone of inhibition >1.5 cm in diameter produced.; +: Zone of inhibition >1.0 cm in diameter produced.; −: No zone detected; details: for zone of inhibition (inhibitory spectrum): Escherichia coli JM109 DPC6053, pure synthesised peptide; for concentration at which the indicator organism was inhibited: agar well-diffusion assay
Description: as §1

[7] = system: E. sakazakii 8272 (NCTC8155); test: agar well diffusion assay, E. sakazakii 8272; type: cell-based, Enterobacter sakazakii; set-up: key to zone of inhibition (inhibitory spectrum): +++: Zone of inhibition >2.0 cm in diameter produced.; ++: Zone of inhibition >1.5 cm in diameter produced.; +: Zone of inhibition >1.0 cm in diameter produced.; −: No zone detected; details: for zone of inhibition (inhibitory spectrum): E. sakazakii NCTC8155 DPC6091, pure synthesised peptide
Description: as §1

[8] = system: Staphylococcus aureus DPC5246; test: agar well diffusion assay, S. aureus DPC5246; type: cell-based; set-up: key: +++: Zone of inhibition >2.0 cm in diameter produced.; ++: Zone of inhibition >1.5 cm in diameter produced.; +: Zone of inhibition >1.0 cm in diameter produced.; −: No zone detected; details: pure synthesised peptide
E. coli O157:H7 DPC6054 = test: agar well diffusion assay, E. coli O157:H7 DPC6054; type: cell-based, Escherichia coli; set-up: key to zone of inhibition (inhibitory spectrum): +++: Zone of inhibition >2.0 cm in diameter produced.; ++: Zone of inhibition >1.5 cm in diameter produced.; +: Zone of inhibition >1.0 cm in diameter produced.; −: No zone detected; details: for zone of inhibition (inhibitory spectrum): E. coli O157:H7 DPC6054, pure synthesised peptide
E. coli O157:H7 DPC6055 = test: agar well diffusion assay, E. coli O157:H7 DPC6055; type: cell-based, Escherichia coli; set-up: key to zone of inhibition (inhibitory spectrum): +++: Zone of inhibition >2.0 cm in diameter produced.; ++: Zone of inhibition >1.5 cm in diameter produced.; +: Zone of inhibition >1.0 cm in diameter produced.; −: No zone detected; details: for zone of inhibition (inhibitory spectrum): E. coli O157:H7 DPC6055, pure synthesised peptide
[9] = system: lactobacilli and other Gram-positive bacteria; details: Floris et al. 2003; cited from earlier work
[10] = system: S. aureus, Streptococcus pyogenes and L. monocytogenes; details: doses as low as; cited from earlier work

CC[C@H](C)[C@H](NC(=O)CNC(=O)[C@H](CCC(=O)O)NC(=O)[C@H](CO)NC(=O)[C@@H](NC(=O)[C@H](CCCNC(=N)N)NC(=O)[C@H](CCCCN)NC(=O)[C@H](CCCCN)NC(=O)[C@H](C)NC(=O)[C@H](CO)NC(=O)[C@H](CC(N)=O)NC(=O)[C@H](CCC(=O)O)NC(=O)[C@H](CC(C)C)NC(=O)[C@H](CCCCN)NC(=O)[C@H](CCCCN)NC(=O)[C@H](C)NC(=O)[C@@H](NC(=O)[C@H](CCCCN)NC(=O)[C@H](CO)NC(=O)[C@H](CC(C)C)NC(=O)[C@H](Cc1c[nH]c2ccccc12)NC(=O)[C@@H](N)CO)[C@@H](C)O)[C@@H](C)CC)C(=O)N[C@@H](C)C(=O)N[C@H](C(=O)N[C@@H](C)C(=O)N[C@H](C(=O)N[C@@H](CCC(N)=O)C(=O)NCC(=O)NCC(=O)N1CCC[C@H]1C(=O)N[C@@H](CCCNC(=N)N)C(=O)O)[C@@H](C)CC)[C@@H](C)CC [Cecropin P1] (H-SWLSKTAKKLENSAKKRISEGIAIAIQGGPR-OH)
MIC of commercially available control peptides (E. coli DPC6053 [1]; strain not given): 50 µM

CC[C@H](C)[C@H](N)C(=O)N[C@@H](CCCCN)C(=O)N[C@@H](Cc1c[nH]cn1)C(=O)N[C@@H](CCC(N)=O)C(=O)NCC(=O)N[C@@H](CC(C)C)C(=O)N1CCC[C@H]1C(=O)N[C@@H](CCC(N)=O)C(=O)N[C@@H](CCC(=O)O)C(=O)O [SEQ ID NO: 1] (H-IKHQGLPQE-OH; N-terminus and C-terminus assumed)
minimum inhibitory concentration (MIC) (E. coli DPC6053 [1]): 78 µM (≈ 81.8 µg/mL) | zone of inhibition (inhibitory spectrum) [2]: ++ (Zone of inhibition >1.5 cm in diameter produced.) | zone of inhibition (inhibitory spectrum) [3]: +++ (Zone of inhibition >2.0 cm in diameter produced.) | concentration at which inhibition was shown ([3]; agar well-diffusion assay, E. sakazakii 5920 (ATCC12868)): 0.05 mM | antimicrobial activity after treatment with proteinase K (E. coli DPC6053 [4]): lose their antibacterial activity | zone of inhibition (inhibitory spectrum) [5]: +++ (Zone of inhibition >2.0 cm in diameter produced.) | zone of inhibition (inhibitory spectrum) (L. innocua DPC3306): ++ (Zone of inhibition >1.5 cm in diameter produced.) | zone of inhibition (inhibitory spectrum) (E. coli DPC6053 [6]): +++ (Zone of inhibition >2.0 cm in diameter produced.) | concentration at which the indicator organism was inhibited (E. coli DPC6053 [6]; E. coli DPC6053): 0.05 mM | zone of inhibition (inhibitory spectrum) [7]: +++ (Zone of inhibition >2.0 cm in diameter produced.) | zone of inhibition (inhibitory spectrum) [8]: − | zone of inhibition (inhibitory spectrum) (E. coli O157:H7 DPC6054): +++ (Zone of inhibition >2.0 cm in diameter produced.) | concentration at which inhibition was shown (E. coli O157:H7 DPC6054; agar well-diffusion assay, E. coli DPC6054 (O157:H7 derivative)): 0.05 mM | zone of inhibition (inhibitory spectrum) (E. coli O157:H7 DPC6055): +++ (Zone of inhibition >2.0 cm in diameter produced.) | concentration at which inhibition was shown (E. coli O157:H7 DPC6055; agar well-diffusion assay, E. coli DPC6055 (O157:H7 derivative)): 0.05 mM

CC(C)C[C@H](NC(=O)[C@H](CC(C)C)NC(=O)[C@H](CC(N)=O)NC(=O)[C@H](CCC(=O)O)NC(=O)[C@H](CC(N)=O)NC(=O)[C@H](CC(C)C)NC(=O)[C@@H](N)C(C)C)C(=O)N[C@@H](CCCNC(=N)N)C(=O)O [SEQ ID NO: 3] (H-VLNENLLR-OH; N-terminus and C-terminus assumed)
minimum inhibitory concentration (MIC) (E. coli DPC6053 [1]): 220 µM (≈ 213 µg/mL) | zone of inhibition (inhibitory spectrum) [2]: ++ (Zone of inhibition >1.5 cm in diameter produced.) | zone of inhibition (inhibitory spectrum) [3]: +++ (Zone of inhibition >2.0 cm in diameter produced.) | antimicrobial activity after treatment with proteinase K (E. coli DPC6053 [4]): lose their antibacterial activity | zone of inhibition (inhibitory spectrum) [5]: +++ (Zone of inhibition >2.0 cm in diameter produced.) | zone of inhibition (inhibitory spectrum) (L. innocua DPC3306): ++ (Zone of inhibition >1.5 cm in diameter produced.) | zone of inhibition (inhibitory spectrum) (E. coli DPC6053 [6]): +++ (Zone of inhibition >2.0 cm in diameter produced.) | concentration at which the indicator organism was inhibited (E. coli DPC6053 [6]; E. coli DPC6053): 0.22 mM | zone of inhibition (inhibitory spectrum) [7]: +++ (Zone of inhibition >2.0 cm in diameter produced.) | concentration at which inhibition was shown ([7]; agar well-diffusion assay, E. sakazakii DPC6091): 0.22 mM | zone of inhibition (inhibitory spectrum) [8]: − | zone of inhibition (inhibitory spectrum) (E. coli O157:H7 DPC6054): +++ (Zone of inhibition >2.0 cm in diameter produced.) | zone of inhibition (inhibitory spectrum) (E. coli O157:H7 DPC6055): +++ (Zone of inhibition >2.0 cm in diameter produced.)

CC[C@H](C)[C@H](NC(=O)[C@@H]1CCCN1C(=O)[C@H](Cc1cnc[nH]1)NC(=O)[C@H](CCCCN)NC(=O)[C@@H]1CCCN1C(=O)[C@@H](N)CCCNC(=N)N)C(=O)N[C@@H](CCCCN)C(=O)N[C@@H](Cc1cnc[nH]1)C(=O)N[C@@H](CCC(N)=O)C(=O)NCC(=O)N[C@@H](CC(C)C)C(=O)N1CCC[C@H]1C(=O)N[C@@H](CCC(N)=O)C(=O)N[C@@H](CCC(=O)O)C(=O)N[C@H](C(=O)N[C@@H](CC(C)C)C(=O)N[C@@H](CC(N)=O)C(=O)N[C@@H](CCC(=O)O)C(=O)N[C@@H](CC(N)=O)C(=O)N[C@@H](CC(C)C)C(=O)N[C@@H](CC(C)C)C(=O)N[C@@H](CCCNC(=N)N)C(=O)N[C@@H](Cc1ccccc1)C(=O)O)C(C)C [isracidin, Isracidin] (H-RPKHPIKHQGLPQEVLNENLLRF-OH)
minimum inhibitory concentration (MIC) (E. coli DPC6053 [1]): 50 µM and 59 µM | concentration inhibiting in vitro growth [9]: 0.1 to 1 mg/mL | dose with strong protective effect [10]: 10 μg per mouse

SDIPNPIGSENSEK (Strain DPC6026; listed as Lactobacillus acidophilus) [SEQ ID NO: 2, peptide of bovine αs1-casein f(183-207), found in fraction A1-49, chemically synthesised]
zone of inhibition (inhibitory spectrum) [2]: − | zone of inhibition (inhibitory spectrum) [3]: − | antimicrobial activity after treatment with proteinase K (E. coli DPC6053 [4]): lose their antibacterial activity | zone of inhibition (inhibitory spectrum) [5]: − | inhibitory / antimicrobial activity (in words) (L. innocua DPC3306; crude fermentates: 96-well plate assay or well diffusion assay): some inhibitory activity | zone of inhibition (inhibitory spectrum) (L. innocua DPC3306): + (Zone of inhibition >1.0 cm in diameter produced.) | inhibitory / antimicrobial activity (in words) (E. coli DPC6053 [6]; E. coli DPC6053, crude fermentates: 96-well plate assay or well diffusion assay): no activity | zone of inhibition (inhibitory spectrum) (E. coli DPC6053 [6]): − | zone of inhibition (inhibitory spectrum) [7]: − | zone of inhibition (inhibitory spectrum) [8]: − | zone of inhibition (inhibitory spectrum) (E. coli O157:H7 DPC6054): − | zone of inhibition (inhibitory spectrum) (E. coli O157:H7 DPC6055): −
